Reference: patent publication US8765762B2, “Pyrazolopyridazines and methods for treating retinal-degerative diseases and hearing loss associated with usher syndrome” (Usher III Initiative, priority 2012, dated 2014)

Tested on: N48K Clarin-1
Experiment: Restoration of expression of N48K Clarin-1 (24 hour incubation), Example 20
Assay type: cell-based
Conditions: HEK293-Clarin-1 N48K-HA D9 cell line; 24 hr incubation with compound; HA-Clarin-1 staining per cell
Method: Assay Method Showing Activity of Compounds of the Invention that Restore Expression of N48K Clarin-1 (24 Hour Incubation)
Clarin-1 is the protein encoded by the gene mutated in Usher III Syndrome (Adato et al., 2002). The most prevalent mutation in Clarin-1 in North America is N48K, which is reported to cause loss of glycosylation and a trafficking defect (Tian et al., 2009). […] Thus it is believed that restoring the trafficking of N48K Clarin-1 to the cell surface provides an avenue of intervention for Usher III Syndrome. […]
The HA-tagged N48K Clarin-1 was detected with an antibody against the HA tag (HA.11 Clone 16B12 Monoclonal antibody, Covance #MMS-101P) at a dilution of 1:1000 in PBS containing Triton X-100. […] The imaging of the stained cells was performed on an InCell 1000 High Content Imager (GE Healthcare), reading out the Cy3 channel for N48K Clarin-1 and the DAPI channel for nuclei. The images were analyzed and quantitated using a specific algorithm. This algorithm measured the HA-Clarin-1 staining for each cell based on the additional nuclear segmentation of the DAPI signal (FIG. 1). This algorithm measured the intensity per cell, and thus it is less sensitive for variation in cell number. Per well, approximately 2,000 cells were measured to achieve an average density per cell measurement.

With `O=C(Cn1nc(-c2ccccc2)c2c(Cl)c(-c3cccc(F)c3)nnc21)N1CCCC1` [Compound 11, 2-[4-chloro-5-(3-fluorophenyl)-3-phenyl-pyrazolo[3,4-c]pyridazin-1-yl]-1-pyrrolidin-1-yl-ethanone] as the molecule, how does the IC50 read?
The IC50 was under 2000 nM.
